Laboratory results reported in patent publication US20210284659A1, “INHIBITORS OF BETA SECRETASE” (Janssen Pharmaceutica NV, priority 2017, published 2021).

Experiments:
[1] = tested on: Abeta 1-42 produced and secreted by human neuroblastoma SKNBE2 cells expressing wild type hAPP695; experiment: Cellular αLisa assay in SKNBE2 cells, Abeta 1-42; format: cell-based; details: 18 hours incubation, read-out: Cellular αLisa assay in SKNBE2 cells Abeta 42 pIC50 (converted)
Procedure: In two αLisa assays the levels of Abeta total and Abeta 1-42 produced and secreted into the medium of human neuroblastoma SKNBE2 cells are quantified. The assay is based on the human neuroblastoma SKNBE2 expressing the wild type Amyloid Precursor Protein (hAPP695). The compounds are diluted and added to these cells, incubated for 18 hours and then measurements of Abeta 1-42 and Abeta total are taken. Abeta total and Abeta 1-42 are measured by sandwich αLisa. αLisa is a sandwich assay using biotinylated antibody AbN/25 attached to streptavidin coated beads and antibody Ab4G8 or cAb42/26 conjugated acceptor beads for the detection of Abeta total and Abeta 1-42 respectively. In the presence of Abeta total or Abeta 1-42, the beads come into close proximity. The excitation of the donor beads provokes the release of singlet oxygen molecules that trigger a cascade of energy transfer in the acceptor beads, resulting in light emission. Light emission is measured after 1 hour incubation (excitation at […] and emission at 615 nm).
(§1) A best-fit curve is fitted by a minimum sum of squares method to the plot of % Controlmin versus compound concentration. From this an IC50 value (inhibitory concentration causing 50% inhibition of activity) can be obtained.

[2] = target: T1, recombinant BACE2 protein (Homo sapiens, UniProt Q9Y5Z0); experiment: BACE2 biochemical FRET based assay; details: 450 min at room temperature, 10 μM substrate, pH 5.0
T1 sequence (Q9Y5Z0 63-518): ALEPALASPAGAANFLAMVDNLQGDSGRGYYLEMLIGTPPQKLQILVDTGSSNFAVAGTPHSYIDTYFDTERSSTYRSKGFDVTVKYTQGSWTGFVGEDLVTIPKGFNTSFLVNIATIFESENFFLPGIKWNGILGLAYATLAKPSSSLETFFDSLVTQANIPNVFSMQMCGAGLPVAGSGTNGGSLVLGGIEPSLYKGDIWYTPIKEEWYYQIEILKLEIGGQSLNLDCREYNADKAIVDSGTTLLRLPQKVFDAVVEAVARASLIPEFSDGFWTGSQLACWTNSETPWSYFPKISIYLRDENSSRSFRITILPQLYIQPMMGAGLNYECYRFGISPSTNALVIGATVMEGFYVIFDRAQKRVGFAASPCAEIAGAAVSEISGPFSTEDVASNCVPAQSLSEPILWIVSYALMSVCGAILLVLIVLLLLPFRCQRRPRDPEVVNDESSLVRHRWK
Excerpt: (§2) This assay is a Fluorescence Resonance Energy Transfer Assay (FRET) based assay. The substrate for this assay contains the ‘Swedish’ Lys-Met/Asn-Leu mutation of the amyloid precursor protein (APP) beta-secretase cleavage site. This substrate also contains two fluorophores: (7-methoxycoumarin-4-yl) acetic acid (Mca) is a fluorescent donor with excitation wavelength at 320 nm and emission at 405 nm and 2,4-Dinitrophenyl (Dnp) is a proprietary quencher acceptor. […] Upon cleavage by the beta-secretase, the fluorophore Mca is separated from the quenching group Dnp, restoring the full fluorescence yield of the donor. The increase in fluorescence is linearly related to the rate of proteolysis.
Briefly in a 384-well format recombinant BACE2 protein in a final concentration of 0.4 μg/ml is incubated for 450 minutes at room temperature with 10 μM substrate in incubation buffer (50 mM Citrate buffer pH 5.0, 0.05% PEG, no DMSO) in the absence or presence of compound. Next the amount of proteolysis is directly measured by fluorescence measurement at T=0 and T=450 (excitation at 320 nm and emission at 405 nm). Results are expressed in RFU (Relative Fluorescence Units), as difference between T450 and TO.
as §1

[3] = target: recombinant BACE1 protein (Homo sapiens, UniProt P56817); experiment: BACE1 biochemical FRET based assay; details: 450 min at room temperature, 20 μM substrate, pH 5.0
Excerpt: as §2, with “this assay is an APP derived 13 amino acids peptide that contains the” for “this assay contains the”, “cleavage by BACE1, the fluorophore” for “cleavage by the beta-secretase, the fluorophore”
Briefly in a 384-well format recombinant BACE1 protein in a final concentration of 0.04 μg/ml is incubated for 450 minutes at room temperature with 20 μM substrate in incubation buffer (50 mM Citrate buffer pH 5.0, 0.05% PEG) in the presence of compound or DMSO. Next the amount of proteolysis is directly measured by fluorescence measurement (excitation at 320 nm and emission at 405 nm) at different incubation times (0, 30, 60, 90, 120 and 450 min). For every experiment a time curve (every 30 min between 0 min and 120 min) is used to determine the time where we find the lowest basal signal of the high control. The signal at this time (Tx) is used to subtract from the signal at 450 min. Results are expressed in RFU, as difference between T450 and Tx.
as §1

β-secretase II (BACE2) = target: T2, β-secretase II (BACE2) (Homo sapiens, UniProt Q9Y5Z0); experiment: Automated (CyclOps) biochemical assay BACE2; details: 37 °C, 60 min, pH 5.0; read-out: Automated assay BACE2 pIC50 (converted)
T2 sequence (Q9Y5Z0 63-518): T1 sequence (Q9Y5Z0 63-518)
Procedure: (§3) Unless otherwise indicated all biochemicals were purchased from Sigma-Aldrich Chemical Company, Poole, Dorset, U.K. and non-aqueous solvents, of analytical or higher grade, were purchased from ThermoFisher Scientific, Loughborough, U.K. MilliQ water (Elix 5 & MilliQ Gradient; Merck Millipore) was used as the base aqueous solvent to make up the biological buffers. Base assay buffer was prepared by adding a 50 mM solution of citric acid (1.00244; Merck Biosciences) to stirring solution of 50 mM trisodium citrate (1.06448; Merck Biosciences) until a final pH of 5.0 was achieved. […] All assays were routinely carried out in 384-well assay plates (Costar 4514; Corning Life Sciences) and incubated at 37±1° C. for 60 min. prior to reading the endpoint fluorescence intensity. The (7-methoxyl coumarin-4-yl)acetic acid based substrate 0-secretase substrate VI (M2465; Bachem) was prepared as a 1 mM stock in 100% DMSO (D/4121/PB08; ThermoFisher). Assay buffer was prepared by adding DMSO to base buffer to a final concentration of 1% (vol./vol.). β-secretase I (18.64 μM; “BACE1”) and β-secretase II (4.65 μM; “BACE2”) were obtained from Janssen Pharmaceutica, Beerse, Belgium and were stored as frozen aliquots (˜20 μl) and thawed as required.
(§4) The CyclOps bioassay module consisted of a fraction collection station, a reagent station, liquid handling robotics, plate store and an integrated plate reader (SpectraMAX Paradigm, TUNE cartridge, SoftMax Pro v 6.3; Molecular Devices). The fraction collection station composed of a 384 well collection plate (P-384-240SQ-C; Axygen, Union City, Calif., USA) mounted on a H-portal carriage (Festo AG & Co. KG, Esslingen, Germany), a syringe drive and a two-way six port injection valve fitted with a 200 μl loop (VICI AG International, Schenkon Switzerland). The output of the injection valve was addressable to all the positions of a 384 well collection plate. The reagent station consisted of hydraulically cooled (10-12° C.) aluminium segments; each manufactured to house a SBS microtiter plate footprint. Independent addressable reagent stations were housed within these sections. Where required, custom aluminium housings were used to accommodate standard laboratory plastic ware (e.g. Eppendorf tubes, Falcon tubes, etc.). As and when required the reagent reservoirs were covered and the lids contained holes through which the Teflon-coated probe could access solutions. The reagents present on the liquid handling system were: • Probe wash solution (˜150 ml; 33.3:33.3:33.3 water:propan-2-ol (P/7508/17; ThermoFisher):methanol (M/4058/17; ThermoFisher) contained in a covered reagent reservoir (390007; Porvair Sciences Ltd., Leatherhead, UK). • Assay buffer solution • HPLC grade water • 40 nM BACE1 diluted in base buffer contained in a 5 ml Eppendorf tube (0030 119.401; Eppendorf) • 400 nM BACE2 diluted in 25 mM tris (648311; Merck Biosciences, Nottingham, U.K.), pH 7.5 containing 100 mM sodium chloride and 20% glycerol (16374; USB Corp., Cleveland, Ohio, USA) contained in a 1.5 ml Eppendorf tube (0030 000.919; Eppendorf) • 1 mM substrate in 100% DMSO contained in a 1.5 ml Eppendorf tube (maintained at ambient temperature) • Two empty 1.5 ml Eppendorf tubes
(§5) The liquid handling system composed of a LISSY system (Zinsser Analytik GmbH, Frankfurt, Germany) equipped with gripper arm and single teflon-coated stainless steel probe. […]

β-secretase I (BACE1) = β-secretase I (BACE1) (Homo sapiens, UniProt P56817); experiment: Automated (CyclOps) biochemical assay BACE1; details: 37 °C, 60 min, pH 5.0; read-out: Automated assay BACE1 pIC50 (converted)
Procedure: as §3, §4, §5

Sequence of recombinant BACE1 protein (P56817 46-501): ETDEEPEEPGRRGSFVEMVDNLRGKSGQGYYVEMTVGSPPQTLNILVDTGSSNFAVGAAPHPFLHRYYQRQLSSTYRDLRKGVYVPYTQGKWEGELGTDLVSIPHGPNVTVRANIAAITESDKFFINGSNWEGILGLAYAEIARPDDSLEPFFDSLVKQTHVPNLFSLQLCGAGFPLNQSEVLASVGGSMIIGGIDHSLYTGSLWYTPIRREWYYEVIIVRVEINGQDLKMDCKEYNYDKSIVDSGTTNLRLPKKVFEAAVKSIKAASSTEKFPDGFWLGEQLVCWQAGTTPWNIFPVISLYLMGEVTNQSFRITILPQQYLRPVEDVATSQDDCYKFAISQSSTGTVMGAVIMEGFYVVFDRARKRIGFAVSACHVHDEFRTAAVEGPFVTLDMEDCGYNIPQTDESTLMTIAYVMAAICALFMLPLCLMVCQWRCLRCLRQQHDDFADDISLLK
Sequence of β-secretase I (BACE1) (P56817 46-501): as above

Row | IC50 [1] [µM] | Biochemical FRET based assay pIC50 [2] | Biochemical FRET based assay pIC50 [3] | IC50 (β-secretase II (BACE2)) [µM] | IC50 (β-secretase I (BACE1)) [µM] | Structure (SMILES)
1 | 0.0676 | 7.1 | 7.64 | 0.204 | 0.049 | COc1ccc(Cc2cnc(OC)c3c2C[C@H]2CSC(N)=N[C@@]2(c2ccc(F)cc2F)C3)cc1 [Compound 5]
2 |  |  |  | 0.219 | 0.195 | COc1cc(Cc2cnc(OC)c3c2C[C@H]2CSC(N)=N[C@@]2(c2ccc(F)cc2F)C3)cc(OC)c1 [Compound 8]
3 | 0.0427 | 6.56 | 7.99 |  |  | COc1ncc(Cc2c(C)cccc2C)c2c1C[C@]1(c3ccc(F)cc3F)N=C(N)SC[C@@H]1C2 [Compound 9]

Continued, molecule first:

Row | Structure (SMILES) | IC50 [1] [µM] | Biochemical FRET based assay pIC50 [2] | Biochemical FRET based assay pIC50 [3] | IC50 (β-secretase II (BACE2)) [µM] | IC50 (β-secretase I (BACE1)) [µM]
4 | COc1ncc(CC2CCOCC2)c2c1C[C@]1(c3ccc(F)cc3F)N=C(N)SC[C@@H]1C2 [Compound 1] | 0.000759 | 8.18 | 8.52 |  | 
5 | COc1ncc(Cc2c(C)noc2C)c2c1C[C@]1(c3ccc(F)cc3F)N=C(N)SC[C@@H]1C2 [Compound 2] | 0.00263 | 7.36 | 8.23 |  | 
6 | COc1ncc(Cc2ccccc2C)c2c1C[C@]1(c3ccc(F)cc3F)N=C(N)SC[C@@H]1C2 [Compound 3] |  |  |  | 0.355 | 0.0229
7 | COc1cccc(Cc2cnc(OC)c3c2C[C@H]2CSC(N)=N[C@@]2(c2ccc(F)cc2F)C3)c1 [Compound 6] |  |  |  | 0.191 | 0.0759
8 | COc1ncc(Cc2cccc(Cl)c2)c2c1C[C@]1(c3ccc(F)cc3F)N=C(N)SC[C@@H]1C2 [Compound 7] |  |  |  | 0.11 | 0.0617
